Measurements: paper PMC11208146, “Molecular basis for transposase activation by a dedicated AAA+ ATPase” (Nature, 2024)

Legend:
Assay type in all cases: binding
[1] = biological target: T1, IstA–IstB–STC holo-transpososome (Geobacillus stearothermophilus, UniProt Q45618+Q45619, Q45619:E167Q, form not given); test: cryo-EM structure, […] Å; conditions: assembled with 1 mM ATP, 5 mM MgCl2, pH 7.5, strand-transfer DNA; internal IstB-IstB sites (e.g. 1b)
T1 construct: full-length IstB (His6-MBP cleaved) with full-length IstA (C-terminal MBP-His6 cleaved by TEV), E. coli; in the structure one IstA tetramer, two IstB decamers and strand-transfer DNA, about 1 MDa; IstA Glu209/Tyr213 contact the nucleotide of IstB 1a/1a'

IstB = biological target: T2, IstB (Geobacillus stearothermophilus, UniProt Q45619); test: cryo-EM structure, […] Å; conditions: 5 mM MgCl2, 1 mM ATP, pH 7.5, 60 bp target DNA; eight complete sites at IstB-IstB interfaces
T2 construct: full-length; His6-MBP tag cleaved (PreScission); E. coli BL21 codon-plus (DE3) RIL; pentamer of dimers (decamer) on 60 bp target DNA

[2] = biological target: T1, IstA–IstB–STC holo-transpososome; test: cryo-EM structure, focused refinement of core, […] Å; conditions: assembled with 1 mM ATP, 5 mM MgCl2, pH 7.5, strand-transfer DNA; IstB monomers 1a and 1a' contacting IstA

| Structure (SMILES) | cryo-EM structure, 3.6 Å [1] | cryo-EM structure, 3.2 Å (IstB) | cryo-EM structure, focused refinement of core, 3.2 Å [2] |
| --- | --- | --- | --- |
| Nc1ncnc2c1ncn2[C@@H]1O[C@H](COP(=O)(O)OP(=O)(O)OP(=O)(O)O)[C@@H](O)[C@H]1O [ATP] | other subunits (1b, bound to ATP, shown on the right for comparison) | Close inspection of the EM map showed clear density maps for ATP in all binding pockets | – |
| Nc1ncnc2c1ncn2[C@@H]1O[C@H](COP(=O)(O)OP(=O)(O)O)[C@@H](O)[C@H]1O [ADP] | – | – | revealed that the density in these active sites is most consistent with ADP |
